Converted amounts (≈) assume the structure as drawn.
Tests used:
Type in all cases: functional
Klebsiella pneumoniae = assay: Antibacterial activity against Klebsiella pneumonia assessed growth inhibition by micro broth dilution method
Staphylococcus aureus [1] = assay: Antibacterial activity against methicillin-resistant Staphylococcus aureus assessed growth inhibition by micro broth dilution method
Escherichia coli [2] = assay: Antibacterial activity against Escherichia coli assessed growth inhibition by micro broth dilution method
Staphylococcus aureus [3] = assay: Antibacterial activity against Staphylococcus aureus ATCC 29213 assessed growth inhibition by micro broth dilution method
Escherichia coli [4] = assay: Antibacterial activity against Escherichia coli ATCC 25922 assessed growth inhibition by micro broth dilution method
Acinetobacter baumannii = assay: Antibacterial activity against Acinetobacter baumannii assessed growth inhibition by micro broth dilution method
Staphylococcus aureus [5] = assay: Antibacterial activity against Staphylococcus aureus assessed growth inhibition by micro broth dilution method
Enterococcus faecalis = assay: Antibacterial activity against Enterococcus faecalis assessed growth inhibition by micro broth dilution method
Pseudomonas aeruginosa [6] = assay: Antibacterial activity against Pseudomonas aeruginosa ATCC 27853 assessed growth inhibition by micro broth dilution method
Pseudomonas aeruginosa [7] = assay: Antibacterial activity against Pseudomonas aeruginosa assessed growth inhibition by micro broth dilution method
Staphylococcus aureus [8] = assay: Antibacterial activity against Staphylococcus aureus ATCC 25923 assessed growth inhibition by micro broth dilution method

Row | SMILES | MIC (Klebsiella pneumoniae) [µg/mL] | MIC (Staphylococcus aureus [1]) [µg/mL] | MIC (Escherichia coli [2]) [µg/mL] | MIC (Staphylococcus aureus [3]) [µg/mL] | MIC (Escherichia coli [4]) [µg/mL] | MIC (Acinetobacter baumannii) [µg/mL] | MIC (Staphylococcus aureus [5]) [µg/mL] | MIC (Enterococcus faecalis) [µg/mL] | MIC (Pseudomonas aeruginosa [6]) [µg/mL] | MIC (Pseudomonas aeruginosa [7]) [µg/mL] | MIC (Staphylococcus aureus [8]) [µg/mL]
1 | CCOC(=O)c1cn(C)c2cc([C-](C#N)C(=O)OCC)c(F)cc2c1=O.[Na+] (stereo unspecified) | 32 | 64 | 32 | 64 | 16 | 32 | 128 | 32 | 32 | 32 | 1
2 | CCOC(=O)c1cn2c3c(c([C-](C#N)C(=O)OCC)c(F)cc3c1=O)OC[C@@H]2C.[Na+] (stereo partly specified) | 256 | 128 | 64 | 256 | 64 | 128 | 256 | 128 | 64 | 256 | 4
3 | CCOC(=O)c1cn(CC(N)=O)c2cc([C-](C#N)C(=O)OCC)c(F)cc2c1=O.[Na+] (stereo unspecified) | 256 | 256 | 256 | 256 | 256 | 256 | 256 | 256 | 256 | 256 | 256
4 | CCOC(=O)c1cn(Cc2ccc(Cl)c(Cl)c2)c2cc(F)c(F)cc2c1=O | 0.5 (≈ 1.21 µM) | 256 (≈ 621 µM) | 8 (≈ 19.4 µM) | 256 (≈ 621 µM) | 2 (≈ 4.85 µM) | 256 (≈ 621 µM) | 16 (≈ 38.8 µM) | 128 (≈ 311 µM) | 64 (≈ 155 µM) | 32 (≈ 77.6 µM) | 256 (≈ 621 µM)
5 | CCOC(=O)c1cn(Cc2cccc(Cl)c2)c2cc(F)c(F)cc2c1=O | 32 (≈ 84.7 µM) | 256 (≈ 678 µM) | 1 (≈ 2.65 µM) | 128 (≈ 339 µM) | 64 (≈ 169 µM) | 4 (≈ 10.6 µM) | 64 (≈ 169 µM) | 2 (≈ 5.29 µM) | 32 (≈ 84.7 µM) | 256 (≈ 678 µM) | 64 (≈ 169 µM)
6 | CCOC(=O)C(C#N)c1cc2c(cc1F)c(=O)c(C(=O)O)cn2Cc1ccc(F)cc1F (stereo unspecified) | 0.5 (≈ 1.13 µM) | 8 (≈ 18 µM) | 16 (≈ 36 µM) | 4 (≈ 9 µM) | 0.5 (≈ 1.13 µM) | 2 (≈ 4.5 µM) | 4 (≈ 9 µM) | 8 (≈ 18 µM) | 2 (≈ 4.5 µM) | 16 (≈ 36 µM) | 1 (≈ 2.25 µM)
7 | CCOC(=O)c1cn(CC)c2cc([C-](C#N)C(=O)OCC)c(F)cc2c1=O.[Na+] (stereo unspecified) | 32 | 64 | 64 | 64 | 32 | 32 | 256 | 64 | 32 | 32 | 2
8 | CCOC(=O)c1cn(Cc2ccc(F)cc2F)c2cc(F)c(F)cc2c1=O | 0.25 (≈ 0.659 µM) | 256 (≈ 675 µM) | 16 (≈ 42.2 µM) | 256 (≈ 675 µM) | 128 (≈ 337 µM) | 16 (≈ 42.2 µM) | 256 (≈ 675 µM) | 256 (≈ 675 µM) | 256 (≈ 675 µM) | 64 (≈ 169 µM) | 256 (≈ 675 µM)
9 | CCOC(=O)c1cn(Cc2ccccc2Cl)c2cc([C-](C#N)C(=O)OCC)c(F)cc2c1=O.[Na+] (stereo unspecified) | 4 | 64 | 0.25 | 2 | 2 | 32 | 256 | 1 | 2 | 16 | 0.5
10 | CCCCCn1cc(C(=O)OCC)c(=O)c2cc(F)c(F)cc21 | 64 (≈ 198 µM) | 256 (≈ 792 µM) | 16 (≈ 49.5 µM) | 64 (≈ 198 µM) | 64 (≈ 198 µM) | 64 (≈ 198 µM) | 32 (≈ 99 µM) | 64 (≈ 198 µM) | 256 (≈ 792 µM) | 64 (≈ 198 µM) | 256 (≈ 792 µM)
11 | CCOC(=O)c1cn(CC(=O)N2CCCCC2)c2cc(F)c(F)cc2c1=O | 256 (≈ 677 µM) | 256 (≈ 677 µM) | 16 (≈ 42.3 µM) | 64 (≈ 169 µM) | 64 (≈ 169 µM) | 64 (≈ 169 µM) | 256 (≈ 677 µM) | 64 (≈ 169 µM) | 64 (≈ 169 µM) | 32 (≈ 84.6 µM) | 128 (≈ 338 µM)
12 | CCOC(=O)c1cn(C2CC2)c2cc([C-](C#N)C(=O)OCC)c(F)cc2c1=O.[Na+] (stereo unspecified) | 16 | 16 | 16 | 32 | 32 | 32 | 32 | 16 | 16 | 32 | 8
13 | CCOC(=O)c1cn(Cc2ccc(Cl)cc2)c2cc([C-](C#N)C(=O)OCC)c(F)cc2c1=O.[Na+] (stereo unspecified) | 2 | 64 | 0.5 | 2 | 1 | 64 | 64 | 1 | 2 | 16 | 1
14 | CCCCCCn1cc(C(=O)OCC)c(=O)c2cc(F)c([C-](C#N)C(=O)OCC)cc21.[Na+] (stereo unspecified) | 1 | 32 | 0.5 | 1 | 1 | 0.5 | 16 | 16 | 1 | 0.5 | 0.5
15 | CCOC(=O)c1cn2c3c(c(F)c(F)cc3c1=O)OC[C@@H]2C | 32 (≈ 103 µM) | 64 (≈ 207 µM) | 16 (≈ 51.7 µM) | 64 (≈ 207 µM) | 128 (≈ 414 µM) | 32 (≈ 103 µM) | 128 (≈ 414 µM) | 128 (≈ 414 µM) | 256 (≈ 828 µM) | 128 (≈ 414 µM) | 32 (≈ 103 µM)
16 | CCOC(=O)c1cn(Cc2ccc(C)cc2)c2cc(F)c(F)cc2c1=O | 128 (≈ 358 µM) | 256 (≈ 716 µM) | 1 (≈ 2.8 µM) | 128 (≈ 358 µM) | 128 (≈ 358 µM) | 2 (≈ 5.6 µM) | 64 (≈ 179 µM) | 64 (≈ 179 µM) | 256 (≈ 716 µM) | 128 (≈ 358 µM) | 64 (≈ 179 µM)
17 | CCCCCCCCn1cc(C(=O)O)c(=O)c2cc(F)c(C(C#N)C(=O)OCC)cc21 (stereo unspecified) | 0.25 (≈ 0.581 µM) | 8 (≈ 18.6 µM) | 32 (≈ 74.3 µM) | 4 (≈ 9.29 µM) | 0.5 (≈ 1.16 µM) | 1 (≈ 2.32 µM) | 4 (≈ 9.29 µM) | 16 (≈ 37.2 µM) | 1 (≈ 2.32 µM) | 4 (≈ 9.29 µM) | 1 (≈ 2.32 µM)
18 | CCOC(=O)c1cn(CC(=O)N2CCCCC2)c2cc([C-](C#N)C(=O)OCC)c(F)cc2c1=O.[Na+] (stereo unspecified) | 256 | 32 | 32 | 8 | 64 | 16 | 256 | 64 | 16 | 128 | 64
19 | CCOC(=O)c1cn(Cc2ccccn2)c2cc([C-](C#N)C(=O)OCC)c(F)cc2c1=O.[Na+] (stereo unspecified) | 256 | 256 | 256 | 256 | 128 | 256 | 256 | 256 | 128 | 128 | 256
20 | CCOC(=O)c1cn(CC)c2cc(F)c(F)cc2c1=O | 64 (≈ 228 µM) | 256 (≈ 910 µM) | 16 (≈ 56.9 µM) | 128 (≈ 455 µM) | 64 (≈ 228 µM) | 256 (≈ 910 µM) | 32 (≈ 114 µM) | 128 (≈ 455 µM) | 256 (≈ 910 µM) | 64 (≈ 228 µM) | 256 (≈ 910 µM)
21 | CCOC(=O)c1cn(CC2CCC2)c2cc(F)c(F)cc2c1=O | 32 (≈ 99.6 µM) | 256 (≈ 797 µM) | 16 (≈ 49.8 µM) | 256 (≈ 797 µM) | 128 (≈ 398 µM) | 128 (≈ 398 µM) | 64 (≈ 199 µM) | 128 (≈ 398 µM) | 256 (≈ 797 µM) | 32 (≈ 99.6 µM) | 16 (≈ 49.8 µM)

From ChEMBL document CHEMBL5528028, “Discovery of benzopyridone cyanoacetates as new type of potential broad-spectrum antibacterial candidates” (Eur J Med Chem, 2024)
